According to patent US9938269B2, “Inhibitor compounds of phosphodiesterase type 10A” (ABBVIE INC., priority 2011, dated 2018):
Structures can show the parent of a compound that is named as a salt.

Target: T1, PDE10A (human) (Homo sapiens, UniProt Q9Y233)
T1 construct: purchased BPS Bioscience
Assay: Measurement of PDE activity (HTRF cAMP kit), human PDE10A
Assay type: biochemical
Settings: PDE enzymatic reaction, substrate 20 nM for PDE10, 60 minutes at 29 C
Description: The recombinant PDE proteins are used in in vitro enzymatic reaction for measurement of PDE activity. These recombinant proteins, including PDE10A (human, rat and mouse PDE10) and isoforms of PDEs 1, 3, 4, and 5, were purchased from commercial vendor BPS Bioscience. The enzymatic activity of PDEs was determined by cAMP measurement kit from CisBio (IBA) using HTRF technology.
The PDE enzymatic reaction was carried out in assay buffer (20 mM Tris-HCl pH7.5, 10 mM MgCl2, 0.1% bovine serum albumin) containing enzyme and substrate. The PDE enzymes concentration ranged from 10 pM-250 pM, depending on each enzyme's specific activity. The substrate cyclic nucleotide (cAMP or cGMP) concentration used in the assay was 20 nM for PDE10, and 100 nM for other PDEs. The inhibitory effect of compound was determined by incubating various concentration of inhibitor in the enzymatic assay. Typically, compound was serial diluted in DMSO then further diluted in assay buffer. Next, the compound at varying concentration was mixed with PDE enzyme. The reaction was initiated by addition of cyclic nucleotide substrate, and incubated for 60 minutes at 29 C. The reaction was stopped by addition of lysis buffer from assay kit. The cAMP-d2 and anti-cAMP cryptate in the lysis buffer detected the level of cAMP left from the PDE hydrolysis reaction. The PDE activity is reversely correlated with the amount of cAMP left in the reaction and can be converted to the percent activity of an uninhibited control (100%). Thus, IC50 value of inhibitor can be obtained by plotting inhibitor concentration against PDE activity at that concentration.

T1 sequence (Q9Y233 whole entry): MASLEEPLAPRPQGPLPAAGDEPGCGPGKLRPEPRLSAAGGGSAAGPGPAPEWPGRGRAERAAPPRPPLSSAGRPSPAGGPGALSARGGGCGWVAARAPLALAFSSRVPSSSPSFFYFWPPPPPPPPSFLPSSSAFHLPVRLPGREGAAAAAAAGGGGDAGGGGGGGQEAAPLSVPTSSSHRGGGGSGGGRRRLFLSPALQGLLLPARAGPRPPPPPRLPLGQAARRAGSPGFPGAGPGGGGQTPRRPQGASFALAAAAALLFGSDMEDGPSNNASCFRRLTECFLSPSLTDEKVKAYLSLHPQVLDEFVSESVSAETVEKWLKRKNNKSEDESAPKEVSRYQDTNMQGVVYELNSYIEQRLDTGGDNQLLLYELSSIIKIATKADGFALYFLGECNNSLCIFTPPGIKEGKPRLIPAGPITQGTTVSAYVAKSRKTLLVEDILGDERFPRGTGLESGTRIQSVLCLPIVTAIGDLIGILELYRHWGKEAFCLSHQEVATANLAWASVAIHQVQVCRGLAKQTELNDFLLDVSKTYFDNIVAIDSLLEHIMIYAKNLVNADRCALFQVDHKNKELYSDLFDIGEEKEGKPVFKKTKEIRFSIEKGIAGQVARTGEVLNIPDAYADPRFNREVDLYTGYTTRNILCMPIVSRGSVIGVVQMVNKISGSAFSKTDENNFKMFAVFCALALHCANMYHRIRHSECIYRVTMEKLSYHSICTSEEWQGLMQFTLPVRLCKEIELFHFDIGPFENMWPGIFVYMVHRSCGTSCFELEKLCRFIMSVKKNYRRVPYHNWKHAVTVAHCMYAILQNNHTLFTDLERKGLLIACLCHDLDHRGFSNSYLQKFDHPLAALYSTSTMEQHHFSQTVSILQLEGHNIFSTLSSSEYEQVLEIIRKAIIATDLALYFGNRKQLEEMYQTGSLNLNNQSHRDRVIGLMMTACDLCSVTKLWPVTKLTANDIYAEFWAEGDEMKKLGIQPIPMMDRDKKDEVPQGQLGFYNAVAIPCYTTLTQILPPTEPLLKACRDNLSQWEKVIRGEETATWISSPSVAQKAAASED

IC50	SMILES
100 to 200 nM	COc1ncc(-c2cccc3c2C(=O)N(CCc2ccc4ccccc4n2)C3)cn1 [Example 61, 7-(2-Methoxy-pyrimidin-5-yl)-2-(2-quinolin-2-yl-ethyl)-2,3-dihydro-isoindol-1-one]
200 to 500 nM	CCCn1c(CCN2Cc3cccc(N4CCOCC4)c3C2=O)nc2ccccc21 [Example 305, 7-Morpholin-4-yl-2-[2-(1-propyl-1H-benzoimidazol-2-yl)-ethyl]-2,3-dihydro-isoindol-1-one trifluoroacetate]
< 100 nM	O=C1c2c(cccc2-c2ccncc2Cl)CN1CCc1ccc2ccccc2n1 [Example 170, 7-(3-Chloro-pyridin-4-yl)-2-(2-quinolin-2-yl-ethyl)-2,3-dihydro-isoindol-1-one trifluoroacetate]
< 100 nM	O=C1c2c(cccc2N2CCC(F)(F)CC2)CN1CCc1ccc2ccccc2n1 [Example 143, 7-(4,4-Difluoro-piperidin-1-yl)-2-(2-quinolin-2-yl-ethyl)-2,3-dihydro-isoindol-1-one]
< 100 nM	O=C1c2c(cccc2-c2ccoc2)CN1CCc1ccc2ccccc2n1 [Example 46, 7-Furan-3-yl-2-(2-quinolin-2-yl-ethyl)-2,3-dihydro-isoindol-1-one]
< 100 nM	O=c1c2c(-c3ccncc3)cccc2on1CCc1ccc2ccccc2n1 [Example 18, 4-Pyridin-4-yl-2-(2-quinolin-2-yl-ethyl)-benzo[d]isoxazol-3-one]
< 100 nM	O=C1c2c(N3CCC(CF)C3)ccnc2CN1CCc1ccc2ccccc2n1 (centres unmarked) [compound 435, 4-[3-(Fluoromethyl)pyrrolidin-1-yl]-6-[2-(2-quinolyl)ethyl]-7H-pyrrolo[3,4-b]pyridin-5-one]
< 100 nM	O=C1c2c(-c3ccncc3F)ccnc2CN1CCc1ccc2ccccc2n1 [compound 412, 4-(3-Fluoro-pyridin-4-yl)-6-(2-quinolin-2-yl-ethyl)-6,7-dihydro-pyrrolo[3,4-b]pyridin-5-one]
< 100 nM	O=C1c2c(C3=COCC3)ccnc2CN1CCc1ccc2ccccc2n1 [Example 266, 4-(4,5-Dihydro-furan-3-yl)-6-(2-quinolin-2-yl-ethyl)-6,7-dihydro-pyrrolo[3,4-b]pyridin-5-one]

The remaining lines, values behind:

SMILES	IC50
Cc1cscc1-c1cccc2c1C(=O)N(CCc1ccc3ccccc3n1)C2 [Example 73, 7-(4-Methyl-thiophen-3-yl)-2-(2-quinolin-2-yl-ethyl)-2,3-dihydro-isoindol-1-one]	200 to 500 nM
O=C1c2c(cccc2-c2ccc3cn[nH]c3c2)CN1CCc1cn2ccccc2n1 [Example 243, 2-(2-Imidazo[1,2-a]pyridin-2-yl-ethyl)-7-(1H-indazol-6-yl)-2,3-dihydro-isoindol-1-one]	< 100 nM
O=C1c2c(cccc2NCc2ccncc2)CN1CCc1ccc2ccccc2n1 [Example 125, 7-[(Pyridin-4-ylmethyl)-amino]-2-(2-quinolin-2-yl-ethyl)-2,3-dihydro-isoindol-1-one]	200 to 500 nM
O=C1c2c(cccc2-c2ccccc2F)CN1CCc1ccc2ccccc2n1 [Example 29, 7-(2-Fluoro-phenyl)-2-(2-quinolin-2-yl-ethyl)-2,3-dihydro-isoindol-1-one]	100 to 200 nM
O=C1c2c(cccc2-c2cnc[nH]2)CN1CCc1ccc2ccccc2n1 [Example 84, 7-(3H-Imidazol-4-yl)-2-(2-quinolin-2-yl-ethyl)-2,3-dihydro-isoindol-1-one]	< 100 nM
O=C1c2cccc(-c3cn[nH]c3)c2CN1CCc1ccc2ccccc2n1 [Example 225, 4-(1H-Pyrazol-4-yl)-2-(2-quinolin-2-yl-ethyl)-2,3-dihydro-isoindol-1-one]	< 100 nM
O=C1c2c(cccc2NCc2cccnc2)CN1CCc1ccc2ccccc2n1 [Example 126, 7-[(Pyridin-3-ylmethyl)-amino]-2-(2-quinolin-2-yl-ethyl)-2,3-dihydro-isoindol-1-one]	200 to 500 nM
CCc1csc(CCN2Cc3nccc(-c4ccncc4)c3C2=O)n1 [compound 407, 6-[2-(4-Ethylthiazol-2-yl)ethyl]-4-(4-pyridyl)-7H-pyrrolo[3,4-b]pyridin-5-one]	< 100 nM
